The values below come from PMC11258682, “Mechanoresponsive Protein Crystals for NADH Recycling in Multicycle Enzyme Reactions” (Journal of the American Chemical Society, 2024).

The test concerns the target Cry3Aa (Bacillus thuringiensis, UniProt P0A379). The settings on record: solid crystals, non-specific electrostatic adsorption likely; no PEI.

Chain of Cry3Aa (P0A379 58-644 limits assumed): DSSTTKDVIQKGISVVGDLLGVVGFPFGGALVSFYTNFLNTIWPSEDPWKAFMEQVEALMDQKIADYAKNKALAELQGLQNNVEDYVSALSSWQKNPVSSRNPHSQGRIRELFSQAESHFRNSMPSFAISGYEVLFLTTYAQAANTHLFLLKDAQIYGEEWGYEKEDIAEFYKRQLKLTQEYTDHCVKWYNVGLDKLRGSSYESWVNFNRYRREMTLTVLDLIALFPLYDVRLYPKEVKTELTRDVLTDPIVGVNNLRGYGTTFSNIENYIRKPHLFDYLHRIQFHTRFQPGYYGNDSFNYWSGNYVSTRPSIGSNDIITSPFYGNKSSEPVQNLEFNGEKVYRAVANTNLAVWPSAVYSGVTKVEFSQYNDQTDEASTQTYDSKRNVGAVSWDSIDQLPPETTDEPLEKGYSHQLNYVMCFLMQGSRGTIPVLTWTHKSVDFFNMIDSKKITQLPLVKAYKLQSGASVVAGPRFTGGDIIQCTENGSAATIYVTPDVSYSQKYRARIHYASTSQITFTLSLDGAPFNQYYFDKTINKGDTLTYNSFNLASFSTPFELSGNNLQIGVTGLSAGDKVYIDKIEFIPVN

As for `NC(=O)C1=CN([C@@H]2O[C@H](COP(=O)(O)OP(=O)(O)OC[C@H]3O[C@@H](n4cnc5c(N)ncnc54)[C@H](O)[C@@H]3O)[C@@H](O)[C@H]2O)C=CC1` [NADH], the “amount of NADH bound” value was 6 ± 2 µmol/g.
